Experimental data published in patent publication US8153784B2, “Imaging of enzyme activity” (The General Hospital Corporation, priority 2004, dated 2012).

How the values were obtained:
[1] = molecular target: T1, horseradish peroxidase (HRP) (Armoracia rusticana, UniProt P00433); test: Pseudo-first-order rate constants of HRP-mediated conversion (relaxation times over time, 0.47 T); format: biochemical, horseradish; set-up: purchased Sigma-Aldrich type XII (catalogue number not given)
T1 sequence (P00433 31-338): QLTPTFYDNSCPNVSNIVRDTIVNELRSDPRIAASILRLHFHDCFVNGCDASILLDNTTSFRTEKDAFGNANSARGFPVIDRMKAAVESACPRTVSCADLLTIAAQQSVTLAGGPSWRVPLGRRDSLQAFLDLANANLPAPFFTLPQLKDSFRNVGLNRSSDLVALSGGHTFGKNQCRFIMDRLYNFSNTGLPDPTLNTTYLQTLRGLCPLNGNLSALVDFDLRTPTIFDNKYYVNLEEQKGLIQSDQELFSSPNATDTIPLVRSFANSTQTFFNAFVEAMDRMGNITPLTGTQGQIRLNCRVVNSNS
Procedure: Kinetics of the samples were observed by measuring T1 and T2 at 0.47 T and 40° C. of the samples over at least a 24 hour period. At different time points, 1 M of sodium azide (final concentration=0.17 M) was added to stop the enzyme mediated reaction. The resultant progress curve was fitted with an empirical mathematical model and analyzed according to the Guggenheim method to obtain the pseudo-first-order rate constants (Guggenheim E A. Philos. Mag. 1926; 2:538).
An important property of a suitable substrate for an enzyme is the kinetics of enzymatic reaction. To determine the utility of the paramagnetic complexes as suitable substrates for human myeloperoxidase (MPO), we measured the pseudo-first-order rate constant of these substrates in MPO, and compared to the same substrates' reactions in Horse Radish Peroxidase (HRP) by monitoring the changes in relaxation time over time. […] The results shown were obtained using T1 measurements. T2 measurements yielded nearly identical results. The results are presented as mean±SD. N/A=not applicable.

[2] = molecular target: T2, Myeloperoxidase (MPO) (Homo sapiens, UniProt P05164); test: MPO-mediated oligomerization of 2Gd^3+: UV, HPLC, MALDI-MS, relaxivity; format: biochemical; conditions: for degree of polymerization (N) of oligomerized products: MPO/H2O2, MALDI-MS
T2 construct: purchased Biodesign Int
T2 sequence (P05164 49-745): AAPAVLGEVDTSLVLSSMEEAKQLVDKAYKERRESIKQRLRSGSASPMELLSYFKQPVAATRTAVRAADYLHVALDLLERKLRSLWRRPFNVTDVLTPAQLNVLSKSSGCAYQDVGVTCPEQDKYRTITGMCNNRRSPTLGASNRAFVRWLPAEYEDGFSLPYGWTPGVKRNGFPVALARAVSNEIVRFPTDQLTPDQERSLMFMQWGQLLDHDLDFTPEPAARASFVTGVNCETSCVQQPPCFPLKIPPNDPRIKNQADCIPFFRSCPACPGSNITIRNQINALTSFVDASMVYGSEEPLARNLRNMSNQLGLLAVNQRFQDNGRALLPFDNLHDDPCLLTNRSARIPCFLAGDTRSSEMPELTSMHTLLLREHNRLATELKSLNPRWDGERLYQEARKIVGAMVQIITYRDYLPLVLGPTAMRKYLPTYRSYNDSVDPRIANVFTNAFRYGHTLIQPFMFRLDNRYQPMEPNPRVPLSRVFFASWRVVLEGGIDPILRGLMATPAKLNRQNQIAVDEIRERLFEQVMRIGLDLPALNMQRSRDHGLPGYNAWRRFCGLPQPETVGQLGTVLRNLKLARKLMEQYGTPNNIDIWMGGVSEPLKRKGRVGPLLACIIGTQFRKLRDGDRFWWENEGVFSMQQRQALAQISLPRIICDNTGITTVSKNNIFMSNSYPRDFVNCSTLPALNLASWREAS
Procedure: Myeloperoxidase was purchased from Biodesign Int. and was used as received, activity was measured as described by Klebanoff, S. J.; Waltersdorph, A. M.; Rosen, H.; Methods in Enzymology. Vol. 105, p 399-403.
We incubated 0.6 mL of a solution 10^4M of Gd^3+2 at pH=7.2/25° with 4 units of MPO and an excess of H2O2 for 90 minutes. […] The intensity of these new bands increased for a period of about 90 min, and that 90% of the change could be observed within first 30 min. The reaction was quenched by freezing the mixture in liquid N2. […] However, higher N value species were undetectable.
Four solutions with concentrations ranging from 10^−4 to 10^−3 where separately incubated as above and the T1 value were measured at 0.47T using standard inverse recovery sequence. The fitting of these values, following published procedures, yielded a r1=5.9 mM^−1s^−1. […] For longer incubation times, no linear correlation of T1 from Gd concentration could be obtained due to the precipitation of CA at millimolar concentrations. Lower relaxivity increase (32%) was observed when the activity of the enzyme was lowered to 1 unit.
Further characterization of r1 effects modulated by MPO was accomplished by using a 4×2 well plate array of samples prepared as shown in FIG. 14: Row 1 contained 0.3 mL Gd-DTPA-diSer solutions at pH 7.2; Row 2 included the samples the same concentrations and 4 units of MPO and 2 μL of a 3% of aqueous H2O2. Fitting the T1 values of the wells in row 1 afforded r1 of 4.7 mM^−1s^−1. […] In this case, we observed precipitation of insoluble products during the MRI scan. The fitting of the values measured in other 3 wells, the relaxivity was 5.5 mM^−1s^−1.
Indium-111 labeled bis-5-HT-DTPA was prepared by using transchelation from ^111In-oxiquinoline complex (oxine, Cardinal Health, Cleveland Ohio). To prepare ^111In-bis-5-HT-DTPA, 50 μg of bis-5-HT-DTPA (1 mg/ml) were mixed with 1 mCi ^111In-oxiquinoline solution in 0.7-1.0 ml saline and incubated for 1 hour under argon. Transchelation and purity was controlled by HPLC (Discovery C-18 column, 25×3 mm, Supelco) using 0-55% gradient of acetonitrile in water. Human myeloperoxidase was obtained from BioDesign, Inc., and its activity determined by using the method described by Klebanoff. To determine if the Gd compounds were substrates for human MPO, MPO-mediated oligomerization was monitored by size exclusion HPLC and by measuring ΔT1 on a Bruker Minispec 120 NMR spectrometer using a standard inversion recovery sequence. The degree of oligomerization was determined by mass spectroscopy (MALDI-MS).

fraction of the final relaxation rate obtained within the first 5 minutes [1] | Pseudo first-order rate constant ([1]; from T1 measurements, mean±SD) [s⁻¹] | Structure (SMILES) | increase of r1 compared with the initial substrate ([2]; 0.47T, 4 units of MPO) [%] | r1 ([2]; 0.47T, 4 units of MPO, H2O2) [mM⁻¹ s⁻¹] | relaxivity increase ([2]; 0.47T, enzyme activity lowered to 1 unit) [%] | fraction of the UV absorbance change observed within first 30 min ([2]; 10^4M, pH=7.2/25°, 4 units of MPO, excess H2O2) [%] | conversion ([2]; HPLC after addition of MPO) [%] | degree of polymerization (N) of oligomerized products ([2]; listed as Gd^3+2) | degree of polymerization (N) of oligomerized products ([2]; listed as bis-5-HT-DTPA(Gd)) | relaxivity ([2]; well plate at 1.5T, 4 units of MPO and H2O2, fitting of 3 wells) [mM⁻¹ s⁻¹] | minimum increase of relaxivity ([2]; well plate at 1.5T, range 10^−4 to 5 10^−4) [%]
more than 80% | 0.01 | CC(C(=O)NCC(=O)NCCc1c[nH]c2ccc(O)cc12)N1CCN(CC(=O)[O-])CCN(CC(=O)[O-])CCN(CC(=O)[O-])CC1.[Gd+3] (centres unmarked) [5-HT-DOTA(Gd), Glycylmethyl DOTA(Gd) 5-Hydroxytryptamide] |  |  |  |  |  |  |  |  | 
 |  | O=C([O-])CN(CCN(CC(=O)[O-])CC(=O)NCCc1c[nH]c2ccc(O)cc12)CCN(CC(=O)[O-])CC(=O)NCCc1c[nH]c2ccc(O)cc12.[Gd+3] [2Gd^3+] | 37 | 5.9 | 32 | 90 | 99.5 | 1-4 | up to 5 | 5.5 | ≥ 17
